# Results published in patent publication US6218380A, “Pharmaceutical compositions” (SmithKline Beecham p.l.c., priority 1991, dated 2001).
# Where a name gives a salt, the structure may show the parent alone.
# Legend:
# Klebsiella aerogenes A = assay: Antibacterial synergism, microtitre MIC (Example 42); type: cell-based; conditions: method of Example 42; unit not given
# [1] = system: Klebsiella aerogenes E 70; assay: as above; type: cell-based; conditions: method of Example 42; unit not given
# Klebsiella aerogenes 62 = assay: as above; type: cell-based; conditions: method of Example 42; unit not given
# [2] = system: Staphylococcus aureus (Russell); assay: M.I.C. with clavulanic acid methyl ester (Example 32); type: cell-based
# Proteus mirabilis C889 = assay: as above; type: cell-based
# [3] = system: strains of Klebsiella aerogenes A; assay: Growth inhibition, penicillins with synergist (description); type: cell-based
# Staphylococcus aureus = assay: Antibacterial synergism, microtitre MIC (Example 42); type: cell-based; conditions: method of Example 42
# [4] = Hydrolysis of ester to clavulanic acid in pH 7 buffer; type: physicochemical; conditions: water buffered to pH7
# Description: The reaction was followed by paper chromatography (bioautographic system). Using the butanol/ethanol/water system to follow the reaction over a period of 2 hours the zone of the methyl ester of Rf 0.79 decreased in size as the zone of clavulanic acid at Rf 0.12 increased.
# [5] = Blood and tissue levels in female mice; type: in vivo; conditions: oral administration of 100 mg/kg of the sodium salt
# [6] = system: strains of Staphylococcus aureus; assay: Growth inhibition (properties of clavulanic acid); type: cell-based
# [7] = system: β-lactamase producing strains of Escherichia coli, Klebsiella aerogenes and Staphylococcus aureus; assay: Synergism with ampicillin (properties of clavulanic acid); type: cell-based
# [8] = system: β-lactamase producing strains of Proteus mirabilis and Staphylococcus aureus; assay: Synergism with cephaloridine (properties of clavulanic acid); type: cell-based
structure (smiles),measurement,setting,value
"CC1(C)S[C@@H]2[C@H](NC(=O)[C@H](N)c3ccccc3)C(=O)N2[C@H]1C(=O)O [Ampicillin, ampicillin]",MIC of Ampicillin + 5 μg/ml of Benzyl Ester of clavulanic acid,Klebsiella aerogenes A,1.9
same,MIC of Ampicillin + 5 μg/ml of Methyl Ester of clavulanic acid,Klebsiella aerogenes A,1.9
same,MIC of Ampicillin + 5 μg/ml of Benzyl Ester of clavulanic acid,[1],3.9
same,MIC of Ampicillin + 5 μg/ml of Methyl Ester of clavulanic acid,[1],3.9
same,MIC of Ampicillin + 5 μg/ml of Benzyl Ester of clavulanic acid,Klebsiella aerogenes 62,3.9
same,MIC of Ampicillin + 5 μg/ml of Methyl Ester of clavulanic acid,Klebsiella aerogenes 62,3.9
same,M.I.C. of antibiotic in the presence of 1.0 μg/ml. clavulanic acid methyl ester,[2],< 0.4 µg/mL
same,M.I.C. for ampicillin in the presence of 5 μg/ml. clavulanic acid methyl ester,Proteus mirabilis C889,31 µg/mL
"CC1(C)S[C@@H]2[C@H](NC(=O)Cc3ccccc3)C(=O)N2[C@H]1C(=O)O [Benzylpenicillin, benzylpenicillin]",Concentration of penicillin that inhibits growth when 5 μg/ml. of clavulanic acid is also present,[3],less than 12.5 μg/ml
"O=C(Cc1cccs1)N[C@@H]1C(=O)N2C(C(=O)[O-])=C(C[n+]3ccccc3)CS[C@H]12 [Cephaloridine, cephaloridine]","Minimum Inhibitory Concentrations, cephaloridine in presence of 5 μg/ml clavulanic acid sodium salt",Staphylococcus aureus,3.7 µg/mL
COC(=O)[C@H]1/C(=C/CO)O[C@@H]2CC(=O)N21 [clavulanic acid methyl ester],Hydrolysis to clavulanic acid,[4],slowly hydrolyse to clavulanic acid
"O=C(O)[C@H]1/C(=C/CO)O[C@@H]2CC(=O)N21 [clavulanic acid sodium salt, 3-(β-hydroxyethylidine)-7-oxo-4-oxa-1-azabicyclo[3,2,0]heptane-2-carboxylic acid sodium salt]",Levels of clavulanic acid,[5],useful levels
"O=C(O)[C@H]1/C(=C/CO)O[C@@H]2CC(=O)N21 [clavulanic acid, Z-(2R,5R)-3-(β-hydroxyethylidene)-7-oxo-4-oxa-1-azabicyclo[3,2,0]heptane-2-carboxylic acid]",Inhibition of growth of strains of Staphylococcus aureus,[6],able to inhibit the growth
same,Synergism of the antibacterial effect of ampicillin,[7],able to synergise the antibacterial effect of ampicillin
same,Synergism of the antibacterial effect of cephaloridine,[8],able to synergise the antibacterial effect of cephaloridine
